Experimental findings from patent US12606795B2 (Thankcome Biological Science and Technology (SuZhou) Co., …, priority 2023, dated 2026) are described below.

Marks after values point to notes of the source that are not given here.

The nature of data set [1]: Auto-aggregation. The format is physicochemical. To be noted: 37° C., at 20 h. The procedure:
The absorbance (OD600 nm) was adjusted to 0.5. Then the bacterial suspension was cultured at 37° C., and its absorbance at 600 nm at 4, 8, 12, 16, 20, and 24 h was measured. The auto-aggregation percentage was calculated using the following formula: […]

Data set [2] deals with APP/PS1 double transgenic mice. Nature of the data set: Alzheimer's disease in APP/PS1 double transgenic mice. The format is in vivo. The text has this:
20 12-month-old APP/PS1 double transgenic mice (Hangzhou Ziyuan Experimental Animal Technology Co., Ltd., batch MJ0324-058) were randomly divided into two groups: an APP group and an APP+AKK group, with 10 mice in each group. Another 10 littermate wild-type C57 BL/6J mice were taken as blank, which served as a WT group. All mice were given intragastric administration and injection for 30 d at 12-month age (see Table 7 for intragastric administration conditions). After all the experiments ended, blood was collected from the orbital veins of the mice. The mice were sacrificed by cervical dislocation. Part of brain tissue, liver tissue and colon tissue of the mice were taken and placed in 4% paraformaldehyde, and the remaining tissue was placed in an ultra-low temperature freezer at −80° C. for storage.
DDW: Double distilled water.
After administration, a Morris water maze experiment of a 4-day duration was conducted firstly. The water maze consists of a circular pool (with a diameter of 120 cm) and is evenly divided into four quadrants. During the experiment, the mice were moved into a laboratory two hours in advance to acquaint themselves with the environment. The water temperature was adjusted to around 21° C. to 22° C., and then milk was poured into the pool to make the water milky white. D1 to D3 were a training period, during which the mice were gently placed into the water from first, second, third, and fourth quadrants with their faces towards the direction of the pool wall reminders. Swimming trajectories at 1 min were recorded. […] Each mouse was trained once per day per quadrant for 3 consecutive days. D4 was an experimental period, during which a quadrant was randomly selected for each mouse and then the mice were placed in the pool. The time required to find the platform within 60 s, i.e., escape latency, was recorded, and the swimming trajectory of each mouse was recorded with a video acquisition system. If the mouse fail to find the platform within 60 s after entering the water, the escape latency is recorded as 60 s.
A hippocampus was homogenized in 1 mL RIPA (Thermofisher, Waltham, MA, USA) and 10 μL PMSF (Thermofisher), and the homogenized hippocampus was centrifuged at 4° C. at 12000×g for 5 min. Proteins were quantified using a BCA protein assay kit (Thermofisher). A protein sample was mixed with a sample buffer (Thermofisher) in a ratio of 4:1, and the mixture was heated at 95° C. for 5 min. Then the sample was dispensed into gel pores of SDS-PAGE gel and the gel was run at 100 V. Strips on SDS-PAGE gel were transferred onto a PVFD membrane. The PVDF membrane was sealed with 5% skim milk for 1 h, and then the stripes were incubated overnight with a primary antibody (Thermofisher) at 4° C. An antibody (Thermofisher) was added after the membrane was washed and the incubation was performed for 1 h. Images on iBright™ (Thermofisher) were obtained after chemiluminescence was performed using a western ECL substrate (Thermofisher), where the images were used for subsequent analysis.
The hippocampus was taken and homogenized with PBS, and then liquid supernatant was drawn for the experiment. The levels of IL-4 (interleukin-4, Nanjing Jiancheng Biological Engineering Research Institute, product number: H005-1-2), IL-10 (interleukin-10, Nanjing Jiancheng Biological Engineering Research Institute, product number: H009-1-2), CCL2 (chemokine ligand 2, Nanjing Jiancheng Biological Engineering Research Institute, product number: H318-1) and CXCL1 (CXC chemokine ligand 1, Nanjing Jiancheng Biological Engineering Research Institute, product number: H306-1) in the hippocampus were tested by the instruction of the ELISA kit.

Data set [3] in a line: Tolerance to artificial gastric juice. The class given is physicochemical. Conditions: artificial gastric juice pH 2.0, 37° C., at 240 min. The procedure:
Gastric juice ([…], 2 g/L NaCl, and 3.2 g/L pepsin, pH 2.0) and intestinal juice (6.8 g/L KH2 PO4, 10 g/L trypsin, and 0.1M NaOH, pH 8.0) were prepared, and then the gastric juice and the intestinal juice were filtered and sterilized using 0.22 μm sterile filter. […] The bacterial cells were washed twice with sterile saline and resuspended in 5 mL saline. A bacterial solution was mixed well with the sterile artificial gastric or intestinal juice in 1:1 (v/v). The mixture was shaken well, and then was placed in a constant-temperature incubator and culture was performed at 37° C.

Setting [4] is: 1*10^9 CFU/mouse/d intragastric 30 d, vs APP group.
[5] abbreviates: APP+AKK group compared with APP group.

For the substance Akkermansia muciniphila [AKK PROBIO], the auto-aggregation entry in data set [1] is reported as “around 52%”. For the same substance, in data set [2] (setting [4]), the “escape latency (Morris water maze)” value is “shortened” and the “path to finding the platform (Morris water maze)” value was “significantly shortened”. Further, in data set [2] (setting [5]), the “levels of CXCL1 and CCL2” value was “declining trend”; the “levels of IL-4 and IL-10” value is “rising trend”. The “Hippocampus IL-4” value in data set [2] (APP/PS1 mice, 1*10^9 CFU/mouse/d 30 d, APP group 54.73, WT 410.91) is 210.90 ± 19.77^c. Further, the “Hippocampus CCL2” value in data set [2] (APP/PS1 mice, 1*10^9 CFU/mouse/d 30 d, APP group 159.11, WT 103.32) was 123.20 ± 0.50^b. In addition, the “Hippocampus Aβ” value in data set [2] (APP/PS1 mice, 1*10^9 CFU/mouse/d 30 d, APP group 348.45, WT 59.23) is listed as 185.15 ± 9.07^b. Besides, the “Hippocampus IL-10” value in data set [2] (APP/PS1 mice, 1*10^9 CFU/mouse/d 30 d, APP group 1035.86, WT 3373.80) is recorded as 2516.88 ± 91.80^c. For the same substance, the “Hippocampus CXCL1” value in data set [2] (APP/PS1 mice, 1*10^9 CFU/mouse/d 30 d, APP group 1217.20, WT 355.37) was 653.77 ± 15.44^b. For the same substance, in data set [3], the “survival rate in gastric juice” value was “around 85%”.
